The test system of the test is gastric cancer with FGFR2 gene amplification or FGFR2 protein high expression. Briefly: Investigator-assessed tumor response.
Where [1] appears, read: Gastric cancer (N = 9), 140 mg once daily.

The structures appear in SMILES notation. Several values for one entry are separate records, joined by “and”; a condition that tells them apart may be missing. Identical values can stand only once.

For the molecule `CNC(=O)n1ccc2cc(Oc3ccnc(NC(=O)c4ccc(C5CCN(CCO)CC5)cc4)c3)c(OCCOC)cc21` [Tasurgratinib], under setting [1], the “BOR: CR” value is given as 0 (0.0) n (%), the “BOR: PD” value was 4 (44.4) n (%), the “BOR: PR” value is 1 (11.1) n (%) and the “BOR: SD” value was 4 (44.4) n (%). In addition, under setting [1], the “DCR (CR + PR + SD)” value is on record as 5 (55.6) n (%); the “ORR (CR + PR)” value was 1 (11.1) n (%); the “OS rate (95% CI) at 6 months” value is listed as 22.2 (3.4, 51.3) %; the “OS rate (95% CI) at 12 months” value was 11.1 (0.6, 38.8) %. Moreover, under setting [1], the “OS, median (95% CI)” value is 4.27 months and 4.27 (2.23, 7.95) months; the “PFS rate (95% CI) at 6 months” value was 0.0 (NE, NE) %; the “PFS rate (95% CI) at 12 months” value is 0.0 (NE, NE) %; the “PFS, median (95% CI)” value was 3.25 months and 3.25 (0.95, 4.86) months. This molecule registered an ORR (evaluable gastric cancer patients, n = 9, 95% CI 0.3, 48.2) of 11.1%. The molecule also yielded a partial responses (gastric cancer patients, one partial response) of 11.1%.

(Values after publication PMC11711049 (Cancer Science, 2024).)
